Experimental data: article PMC3807247 (Journal of the American Chemical Society, 2009)
Where two headings read alike, the source gives them in different places.

Tests used:
[1] = molecular target: full length Udorn AM2 protein (Influenza A virus, UniProt P0DOF5); assay: Two-electrode voltage clamp; format: cell-based, influenza virus A/Udorn/72; conditions: for AM2 remaing Activity after 100uM inhibition: Table 1, 100 uM inhibitor, pH 5.5, -20 mV; for inhibitory activity against AM2 (in words): tested at 100 μM
Sequence of full length Udorn AM2 protein (P0DOF5 whole entry, looked up): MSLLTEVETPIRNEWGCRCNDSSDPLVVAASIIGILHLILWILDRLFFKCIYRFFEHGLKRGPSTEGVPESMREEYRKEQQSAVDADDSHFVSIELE

[2] = tested on: AM2 channel expressed in Xenopus oocytes; conditions: BL-1743, TEV; cited from earlier work
[3] = read-out: Activity remaining activity after 100uM inhibition

CN1CCC2(CCCCC2)CC1.Cl [Compound 10, 3-Methyl-3-azoniaspiro[5,5]undecane Chloride]
decrease in activity relative to spiro-piperidine 9 ([1]; ratio of IC50 values): approximately 20 fold

C1CSC2(CCNCC2)SC1 [Compound 18, 1,5-Dithia-9-azaspiro[5,5]undecane]
IC50 [1]: 37.6 ± 2.67 µM
remaining activity at 100 µM [1, 3]: 12%

CCC1(C)CCNCC1 [Compound 20, 4-Ethyl-4-methylpiperidinium Chloride]
remaining activity at 100 µM ([1]; read-out: AM2 remaining Activity after 100uM inhibition): 22%

Cc1cc(CN2CCC3(CCCCC3)CC2)no1 [Compound 5, 3-(3-Azaspiro[5,5]undecan-3-ylmethyl)-5-methylisoxazole]
AM2 remaing Activity after 100uM inhibition ([1]; TEV, Xenopus oocytes): 100%

C1CCC2(CC1)CCN(CC1CC1)CC2 [Compound 1, 3-(Cyclopropylmethyl)-3-azaspiro[5,5]undecane]
AM2 remaing Activity after 100uM inhibition ([1]; TEV, Xenopus oocytes): 100%

C1COC2(CCNCC2)OC1 [Compound 17, 1,5-Dioxa-9-azaspiro[5,5]undecane]
IC50 [1]: > 100 µM
remaining activity at 100 µM [1, 3]: 100%

NC(=O)N1CCC2(CCCCC2)CC1 [Compound 12, 3-Azaspiro[5,5]undecane-3-carboxamide]
inhibitory activity against AM2 (in words) [1]: not active

C1CCC2(CC1)CCN(C1=NCCN1)CC2.I [BL-1743, 3-(4,5-Dihydro-1H-imidazol-2-yl)-3-azaspiro[5,5]undecane Hydroiodide, reference compound]
AM2 remaing Activity after 100uM inhibition ([1]; TEV, Xenopus oocytes): 25%
Hill coefficient for inhibition [2]: 1.0

C1CCC2(CC1)CCNC2 [Compound 16, 2-Azoniaspiro[4,5]decane Chloride]
IC50 [1]: 12 ± 1.6 µM

c1c[nH]c(CN2CCC3(CCCCC3)CC2)n1 [Compound 8, 3-((1H-Imidazol-2-yl)methyl)-3-azaspiro[5.5]undecane]
AM2 remaing Activity after 100uM inhibition ([1]; TEV, Xenopus oocytes): 49%
inhibitory activity against AM2 (in words) [1]: moderate inhibition

NC(=S)N1CCC2(CCCCC2)CC1 [Compound 13, 3-Azaspiro[5,5]undecane-3-carbothioamide]
inhibitory activity against AM2 (in words) [1]: not active

C1CCC2(CC1)CCNCC2.Cl [Compound 9, 3-Azaspiro[5,5]undecane Chloride]
IC50 ([1]; Table 2, TEV, Xenopus oocytes): 0.92 ± 0.11 µM
increase in potency relative to BL-1743 ([1]; ratio of IC50 values): more than 45 fold

c1ccc(CN2CCC3(CCCCC3)CC2)nc1 [Compound 6, 3-(Pyridin-2-ylmethyl)-3-azaspiro[5,5]undecane]
AM2 remaing Activity after 100uM inhibition ([1]; TEV, Xenopus oocytes): 100%

c1cc(CN2CCC3(CCCCC3)CC2)cs1 [Compound 3, 3-(Thiophen-3-ylmethyl)-3-azaspiro[5,5]undecane]
AM2 remaing Activity after 100uM inhibition ([1]; TEV, Xenopus oocytes): 90%

C1CCC2(CC1)CCN(CC1CCCC1)CC2 [Compound 2, 3-(Cyclopentylmethyl)-3-azaspiro[5,5]undecane]
AM2 remaing Activity after 100uM inhibition ([1]; TEV, Xenopus oocytes): 100%

c1nc(CN2CCC3(CCCCC3)CC2)c[nH]1 [Compound 7, 3-((1H-Imidazol-4-yl)methyl)-3-azaspiro[5.5]undecane]
AM2 remaing Activity after 100uM inhibition ([1]; TEV, Xenopus oocytes): 70%
inhibitory activity against AM2 (in words) [1]: moderate inhibition

Cn1cc(CN2CCC3(CCCCC3)CC2)cn1 [Compound 4, 3-((1-Methyl-1H-pyrazol-4-yl)methyl)-3-azaspiro[5,5]undecane]
AM2 remaing Activity after 100uM inhibition ([1]; TEV, Xenopus oocytes): 100%
